{
  "source": "paper PMC10999085",
  "about": "“Synthesis, anticancer evaluation, molecular docking and ADME study of novel pyrido[4ʹ,3ʹ:3,4]pyrazolo[1,5-a]pyrimidines as potential tropomyosin receptor kinase A (TrKA) inhibitors” (BMC Chemistry, 2024)",
  "key": {"[1]": {"target": "T1, Tropomyosin receptor kinase A (TrKA) (Homo sapiens, UniProt P04629)", "T1 construct": "purchased", "T1 sequence (P04629 33-796)": "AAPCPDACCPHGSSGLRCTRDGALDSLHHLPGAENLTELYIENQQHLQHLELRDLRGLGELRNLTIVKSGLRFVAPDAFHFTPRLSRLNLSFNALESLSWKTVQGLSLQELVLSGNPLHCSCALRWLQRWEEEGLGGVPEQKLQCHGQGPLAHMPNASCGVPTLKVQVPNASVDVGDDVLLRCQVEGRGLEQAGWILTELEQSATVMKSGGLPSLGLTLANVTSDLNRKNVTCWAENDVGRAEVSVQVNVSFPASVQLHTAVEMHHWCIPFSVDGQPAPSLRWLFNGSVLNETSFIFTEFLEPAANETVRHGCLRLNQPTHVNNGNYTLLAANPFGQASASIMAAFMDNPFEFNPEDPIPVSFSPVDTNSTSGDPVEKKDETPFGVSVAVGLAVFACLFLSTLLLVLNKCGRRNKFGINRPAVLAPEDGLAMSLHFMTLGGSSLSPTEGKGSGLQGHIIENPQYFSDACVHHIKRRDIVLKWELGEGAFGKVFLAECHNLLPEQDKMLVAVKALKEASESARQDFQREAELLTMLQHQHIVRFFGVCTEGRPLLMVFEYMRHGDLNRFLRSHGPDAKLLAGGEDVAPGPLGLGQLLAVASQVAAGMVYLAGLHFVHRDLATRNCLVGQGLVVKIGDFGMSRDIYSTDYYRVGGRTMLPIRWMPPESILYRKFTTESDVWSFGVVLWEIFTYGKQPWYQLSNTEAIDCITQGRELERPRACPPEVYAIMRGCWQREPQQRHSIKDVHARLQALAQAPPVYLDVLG", "assay": "Tropomyosin receptor kinase A (TrKA) inhibitory assay (Kinase-Glo MAX kit)", "assay_type": "biochemical", "details": "in vitro kinase assay, recombinant TrkA", "excerpt": "(§1) The TrkA assay Kit is designed to measure TrkA activity for screening and profiling applications using Kinase-Glo® MAX as a detection reagent. The TrkA Assay Kit comes in a convenient 96-well format, with enough purified recombinant TrkA enzyme, TrkA substrate, ATP and kinase assay buffer for 100 enzyme reactions. The method was discussed in details in the ESI.\nas §1, with “reactions.” for “reactions. The method was discussed in details in the ESI.”\nThe assay protocol: all samples and controls should be tested in duplicate. Dissolve 5x Kinase Assay Buffer 1, ATP, and PTK Substrate Poly (Glu:Tyr 4:1) (10 mg/ml). 2). The master mixture (25 μl per well) was prepared by N wells x (6 μl 5x Kinase Assay Buffer 1 + 1 μl ATP (500 μM) + 1 μl PTK Substrate Poly (Glu:Tyr 4:1) (10mg/ml) + 17 μl water). Add 5 μl of Inhibitor solution of each well labeled as “Test Inhibitor”. For the “Positive Control\" and “Blank”, add 5 μl of the same solution without inhibitor (Inhibitor buffer). Prepare 3 ml of 1x Kinase assay buffer 1 by mixing 600 μl of 5x Kinase assay buffer 1 with 2400 μl water 3 ml of 1x Kinase assay buffer is sufficient for 100 reactions. To the wells designated as \"Blank\", add 20 μl of 1x Kinase assay buffer 1and thaw TrkA enzyme on ice. Upon first thaw, briefly spin tube containing enzyme to recover full content of the tube. Calculate the amount of TrkA required for the assay and dilute enzyme to 5 ng/μl with 1x Kinase assay buffer. Store remaining undiluted enzyme in aliquots at -80°C. Then initiate reaction by adding 20 μl of diluted TrkA enzyme to the wells designated “Positive Control” and \"Test Inhibitor Control\". Incubate at 30°C for 45minutes and thaw Kinase-Glo Max reagent. After the 45 minute reaction, add 50 μl of Kinase-Glo Max reagent to each well. Cover plate with aluminum foil and incubate the plate at room temperature for 15 minutes. Immediately read sample in a luminometer or microtiter-plate capable of reading chemiluminescence. “Blank” value is subtracted from all readings."}, "[2]": {"system": "HepG2 cells", "assay": "In-vitro cell cycle analysis (PI flow cytometry)", "assay_type": "cell-based, human", "description": "HepG-2 cells are pre-cultured in 25 cm^2 cell culture flask. RPMI-1640 medium was used. Tested compounds 7b, 9c, 15b, 16a and 16c were used in the cell treatment at their IC50 by dissolving them in the required medium separately. The procedure was discussed in details in the ESI.\nFor cell cycle analysis, stained DNA from HepG2 cancer cells was treated with compounds 7b, 15b, 16a and 16c that induce cancer cell death by inhibiting TrKA. From the results in Table 5, it can be seen that the proportion of cells at phase in the pre-G1 of compounds 7b, 15b, 16a and 16c increased the proportion of cells at phase in the G2/M by about 4, 4, 2.5 and 3 folds, respectively.\nHepG-2 cells were pre-cultured in 25 cm^2 cell culture flasks; RPMI-1640 medium was used. Tested compounds 7b, 15b, 16a and 16c were dissolved separately in the required medium and used in the cell treatment at their IC50. After overnight treatment the cells were collected and fixed gently with 70% (v/v) ethanol in PBS, incubated overnight at 4 °C, and resuspended in PBS containing 40 µg/ml propidium iodide (PI), 0.1 mg/ml RNase and 0.1% (v/v) Triton X-100 in the dark room at after 30 min at 37 °C, the cell cycle analysis was performed using a flow cytometer, equipped with an argon ion laser at a wavelength of 488 nm (Becton-Dickinson, San Josa, CA, USA) and the percentage of cells at G1, S and G2/M was also calculated."}, "[3]": {"system": "HepG2 cells", "assay": "Annexin V-FITC apoptosis assay", "assay_type": "cell-based, human", "description": "HepG-2 cells were harvested and incubated with compounds 7b, 15b, 16a and 16c separately for 48 h. Then, the cells were collected and washed with PBS two successive times followed by centrifugation. After that, the cells were treated with Annexin V-FITC and propidium iodide (PI) using the apoptosis detection kit (BD Biosciences and Annexin V-FITC and PI binding were analyzed by a flow cytometer.\nEarly and late apoptosis was determined after treatment of HepG2 cells with compounds 7b, 15b, 16a and 16c compared with untreated control cells. The late apoptosis rate increased by about 13, 20, 4 and 3 times, respectively, showing a higher efficiency than the early apoptosis ratio 5, 2, 8 and 6 times, respectively.\nAs mentioned above, HepG-2 cells were collected and incubated separately with compounds 7b, 15b, 16a and 16c for 48 hr. Cells were then collected and washed twice consecutively with PBS and centrifuged. After that, the cells were treated with Annexin V-FITC and propidium iodide (PI) using an apoptosis detection kit (BD Biosciences, San Jose, CA) according to the manufacturer's instructions. The biding of Annexin V-FITC and PI was analyzed by ﬂow cytometer."}, "[4]": {"system": "MCF7 cell line", "assay": "MTT assay, MCF7 cell line", "assay_type": "cell-based, human", "details": "24 hr treatment, in % (unit assumed)", "method_in_brief": "(§2)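 Cells in RPMI-1640 with 10% FBS were seeded at 1.0x10^4 cells/well and cultured 48 h, then exposed to compound for 24 hr. Viability was measured by MTT reduction (4 hr), with formazan dissolved in DMSO and read at 570 nm, relative to untreated cells. Values are means of three independent triplicate experiments.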"}, "[5]": {"system": "HCT-116 cell line", "assay": "MTT assay, HCT-116 cell line", "assay_type": "cell-based, human", "details": "MTT, 24 hr treatment, in % (unit assumed)", "method_in_brief": "as §2"}, "[6]": {"system": "HepG2 cell line", "assay": "MTT assay, HepG2 cell line", "assay_type": "cell-based, human", "method_in_brief": "as §2"}, "[7]": {"system": "Trk family", "design": "method as in earlier work", "details": "cited from earlier work"}, "[8]": {"details": "HepG2, compared with untreated control cells"}},
  "note": "Entries after “also recorded” stand apart in the source; their conditions may differ.",
  "data": [
    {"smiles": "COc1ccc(C=C2C(=O)NC(=O)c3c2nn2c(O)cc(C)nc32)cc1", "note": "[Compound 15b, 4-Hydroxy-7-(4-methoxybenzylidene)-2-methylpyrido[4ʹ,3ʹ:3,4]pyrazolo[1,5-a]pyrimidine-8,10(7H,9H)-dione]", "values": [
      {"measurement": "IC50", "setting": "[1]", "value": 288, "unit": "nM"},
      {"measurement": "Cell cycle comment (phase of arrest)", "setting": "[2]; HepG2", "value": "arrested in the cell cycle at G2/M phase; also recorded: arrest in cell cycle at the G2/M phase; also recorded: cell growth arrest@G2/M"},
      {"measurement": "DNA content %G0-G1", "setting": "[2]; HepG2, compound at its IC50", "value": 33.57, "unit": "%"},
      {"measurement": "DNA content %G2/M", "setting": "[2]; HepG2, compound at its IC50", "value": 36.72, "unit": "%"},
      {"measurement": "DNA content %Pre-G1", "setting": "[2]; HepG2, compound at its IC50", "value": 32.51, "unit": "%"},
      {"measurement": "DNA content %S", "setting": "[2]; HepG2, compound at its IC50", "value": 29.71, "unit": "%"},
      {"measurement": "increase of the proportion of cells in the G2/M phase", "setting": "[2]; HepG2, versus control", "value": "about 4 folds"},
      {"measurement": "Apoptosis Early", "setting": "[3]; HepG2, 48 h, Annexin V-FITC/PI", "value": 2.93, "unit": "%"},
      {"measurement": "Apoptosis Late", "setting": "[3]; HepG2, 48 h, Annexin V-FITC/PI", "value": 20.12, "unit": "%"},
      {"measurement": "Necrosis", "setting": "[3]; HepG2, 48 h, Annexin V-FITC/PI", "value": 9.46, "unit": "%"},
      {"measurement": "apoptosis-inducing effect", "setting": "[3]; HepG2, as stated in the abstract", "value": 36.72, "unit": "%"},
      {"measurement": "increase of early apoptosis ratio", "setting": "[3]; [8]", "value": 2, "unit": "times"},
      {"measurement": "increase of late apoptosis rate", "setting": "[3]; [8]", "value": "~20", "unit": "times"},
      {"measurement": "Cytotoxicity at 5 µg/l", "setting": "[4]; MCF7, 5 µg/l", "value": 28.52},
      {"measurement": "Cytotoxicity at 10 µg/l", "setting": "[4]; MCF7, 10 µg/l", "value": 62.92},
      {"measurement": "Cytotoxicity at 20 µg/l", "setting": "[4]; MCF7, 20 µg/l", "value": 83.62},
      {"measurement": "Cytotoxicity at 5 µg/l", "setting": "[5]; HCT116, 5 µg/l", "value": 26.10},
      {"measurement": "Cytotoxicity at 10 µg/l", "setting": "[5]; HCT116, 10 µg/l", "value": 66.87},
      {"measurement": "Cytotoxicity at 20 µg/l", "setting": "[5]; HCT116, 20 µg/l", "value": 84.20},
      {"measurement": "Cytotoxicity at 5 µg/l", "setting": "[6]; HepG2, 5 µg/l, MTT, 24 hr treatment, in % (unit assumed)", "value": 49.48},
      {"measurement": "Cytotoxicity at 10 µg/l", "setting": "[6]; HepG2, 10 µg/l, MTT, 24 hr treatment, in % (unit assumed)", "value": 75.98},
      {"measurement": "Cytotoxicity at 20 µg/l", "setting": "[6]; HepG2, 20 µg/l, MTT, 24 hr treatment, in % (unit assumed)", "value": 78.66},
      {"measurement": "IC50", "setting": "[6]; Homo sapiens, HepG2, MTT, read-out: IC50 (drug concentration that inhibited 50% of cell proliferation)", "value": 4.64, "unit": "ng/mL"}
    ]},
    {"smiles": "O=C(Nc1cnn2ccc(N3CCC[C@@H]3c3cc(F)ccc3F)nc12)N1CC[C@H](O)C1", "note": "[Larotrectinib]", "values": [
      {"measurement": "IC50", "setting": "[7]", "value": "2 to 20", "unit": "nM"}
    ]}
  ]
}
